Test system: Ramos
Assay: Cytotoxicity against human Ramos cells measured after 8 days
Format: functional, cell-based
Details: 192 h
`C/C=C/Cn1cc(-c2cc(OC)c(C(=O)N3CCOCC3)cc2OC)c2cc(C)[nH]c2c1=O` showed an IC50 of 2000 nM.
For `C/C=C/Cn1cc(-c2ccc(C(C)(C)O)cc2OC)c2cc[nH]c2c1=O`, the IC50 was 20000 nM.

Test system: not listed separately
Assay: Cytotoxicity against human HCC2302 cells measured after 8 days
Format: functional, cell-based
Details: HCC2302, 192 h
Work on `C/C=C/Cn1cc(-c2cc(OC)c(C(=O)N3CCOCC3)cc2OC)c2cc(C)[nH]c2c1=O` yielded an IC50 of 2000 nM.
With `C/C=C/Cn1cc(-c2ccc(C(C)(C)O)cc2OC)c2cc[nH]c2c1=O` the IC50 was 20000 nM.

Target: T1, Adenosine receptor A1 (Homo sapiens) (UniProt P30542)
T1 sequence (whole entry): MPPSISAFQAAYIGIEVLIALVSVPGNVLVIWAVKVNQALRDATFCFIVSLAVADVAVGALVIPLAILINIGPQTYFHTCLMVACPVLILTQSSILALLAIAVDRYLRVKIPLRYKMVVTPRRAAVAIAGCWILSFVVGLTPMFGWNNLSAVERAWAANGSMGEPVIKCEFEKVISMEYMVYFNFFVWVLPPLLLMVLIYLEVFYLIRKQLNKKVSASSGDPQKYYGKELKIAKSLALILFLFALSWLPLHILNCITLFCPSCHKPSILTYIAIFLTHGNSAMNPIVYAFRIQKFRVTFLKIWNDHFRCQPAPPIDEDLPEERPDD
Assay: Displacement of [3H]-DPCPX from human recombinant adenosine A1 receptor at 10 uM after 60 mins by scintillation counting analysis relative to control
Details: not given
`C/C=C/Cn1cc(-c2cc(OC)c(C(=O)N3CCOCC3)cc2OC)c2cc(C)[nH]c2c1=O` showed an Activity of -4%.
`C/C=C/Cn1cc(-c2ccc(C(C)(C)O)cc2OC)c2cc[nH]c2c1=O` showed an Activity of 8%.

Target: Tyrosine-protein kinase Yes (Homo sapiens) (UniProt P07947)
Sequence (P07947 2-543 limits assumed): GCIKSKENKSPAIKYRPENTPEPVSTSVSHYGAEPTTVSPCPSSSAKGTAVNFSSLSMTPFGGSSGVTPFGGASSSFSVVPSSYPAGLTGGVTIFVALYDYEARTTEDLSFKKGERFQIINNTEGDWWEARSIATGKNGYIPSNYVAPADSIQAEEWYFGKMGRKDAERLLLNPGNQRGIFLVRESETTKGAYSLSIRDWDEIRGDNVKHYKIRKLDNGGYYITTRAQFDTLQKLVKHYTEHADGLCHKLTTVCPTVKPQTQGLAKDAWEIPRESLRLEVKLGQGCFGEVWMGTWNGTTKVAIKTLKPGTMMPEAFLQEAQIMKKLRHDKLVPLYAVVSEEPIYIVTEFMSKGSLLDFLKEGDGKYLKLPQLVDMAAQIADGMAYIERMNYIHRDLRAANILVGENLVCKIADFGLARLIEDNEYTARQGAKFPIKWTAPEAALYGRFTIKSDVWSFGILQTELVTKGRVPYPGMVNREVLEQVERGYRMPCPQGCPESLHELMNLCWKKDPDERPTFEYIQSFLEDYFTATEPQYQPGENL
Assay: Inhibition of Yes (unknown origin) at 1 uM relative to control
Details: not given
With `C/C=C/Cn1cc(-c2cc(OC)c(C(=O)N3CCOCC3)cc2OC)c2cc(C)[nH]c2c1=O` the inhibition was 5.5%.
`C/C=C/Cn1cc(-c2ccc(C(C)(C)O)cc2OC)c2cc[nH]c2c1=O` gave an inhibition of 6%.

Test system: NCI-H1703
Assay: Cytotoxicity against human NCI-H1703 cells measured after 8 days
Format: functional, cell-based
Details: NCI-H1703, 192 h
`C/C=C/Cn1cc(-c2cc(OC)c(C(=O)N3CCOCC3)cc2OC)c2cc(C)[nH]c2c1=O` showed an IC50 of 2000 nM.
With `C/C=C/Cn1cc(-c2ccc(C(C)(C)O)cc2OC)c2cc[nH]c2c1=O` the IC50 was 20000 nM.

Target: Receptor-interacting serine/threonine-protein kinase 2 (Homo sapiens) (UniProt O43353)
Sequence (O43353 whole entry): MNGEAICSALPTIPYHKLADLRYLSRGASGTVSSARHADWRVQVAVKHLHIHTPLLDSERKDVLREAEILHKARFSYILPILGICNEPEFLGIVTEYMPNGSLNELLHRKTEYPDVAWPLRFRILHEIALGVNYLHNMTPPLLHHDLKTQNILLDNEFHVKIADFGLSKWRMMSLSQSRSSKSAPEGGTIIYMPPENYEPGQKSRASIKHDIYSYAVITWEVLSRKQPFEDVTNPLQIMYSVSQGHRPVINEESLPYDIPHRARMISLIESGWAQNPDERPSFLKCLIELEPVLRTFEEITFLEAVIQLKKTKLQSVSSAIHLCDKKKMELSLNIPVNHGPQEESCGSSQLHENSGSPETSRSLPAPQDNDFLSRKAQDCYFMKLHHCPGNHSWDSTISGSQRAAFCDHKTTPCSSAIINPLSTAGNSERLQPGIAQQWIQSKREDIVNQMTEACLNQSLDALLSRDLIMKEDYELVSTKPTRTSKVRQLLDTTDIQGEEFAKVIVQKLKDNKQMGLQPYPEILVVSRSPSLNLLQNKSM
Assay: Inhibition of RIPK2 (unknown origin) at 1 uM relative to control
Details: not given
Compound `C/C=C/Cn1cc(-c2cc(OC)c(C(=O)N3CCOCC3)cc2OC)c2cc(C)[nH]c2c1=O` has an inhibition of -1.5%.
`C/C=C/Cn1cc(-c2ccc(C(C)(C)O)cc2OC)c2cc[nH]c2c1=O` gave an inhibition of -0.5%.

Target: Tyrosine-protein kinase Lck (Homo sapiens) (UniProt P06239)
Sequence (P06239 2-509 limits assumed): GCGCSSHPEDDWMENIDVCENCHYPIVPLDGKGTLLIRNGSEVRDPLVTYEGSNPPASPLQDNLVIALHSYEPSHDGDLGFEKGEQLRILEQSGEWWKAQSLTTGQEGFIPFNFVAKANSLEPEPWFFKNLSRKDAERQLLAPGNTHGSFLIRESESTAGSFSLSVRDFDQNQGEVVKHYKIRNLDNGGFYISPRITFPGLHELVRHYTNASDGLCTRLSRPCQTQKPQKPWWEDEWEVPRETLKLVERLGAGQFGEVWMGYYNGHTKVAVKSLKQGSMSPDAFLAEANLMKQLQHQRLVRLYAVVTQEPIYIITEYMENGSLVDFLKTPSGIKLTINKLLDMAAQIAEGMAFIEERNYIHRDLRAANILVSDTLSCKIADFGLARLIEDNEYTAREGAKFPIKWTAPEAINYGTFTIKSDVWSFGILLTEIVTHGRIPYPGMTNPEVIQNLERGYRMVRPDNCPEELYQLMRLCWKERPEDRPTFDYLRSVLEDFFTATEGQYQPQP
Assay: Inhibition of LCK (unknown origin) at 1 uM relative to control
Details: not given
Work on `C/C=C/Cn1cc(-c2cc(OC)c(C(=O)N3CCOCC3)cc2OC)c2cc(C)[nH]c2c1=O` yielded an inhibition of 18.5%.
For `C/C=C/Cn1cc(-c2ccc(C(C)(C)O)cc2OC)c2cc[nH]c2c1=O`, the inhibition was 19.5%.

Test system: JIMT-1
Assay: Cytotoxicity against human JIMT-1 cells measured after 8 days
Format: functional, cell-based
Details: JIMT-1, 192 h
In the case of `C/C=C/Cn1cc(-c2cc(OC)c(C(=O)N3CCOCC3)cc2OC)c2cc(C)[nH]c2c1=O`, the IC50 is reported as 2000 nM.
Compound `C/C=C/Cn1cc(-c2ccc(C(C)(C)O)cc2OC)c2cc[nH]c2c1=O` has an IC50 of 20000 nM.

Target: Histamine H1 receptor (Homo sapiens) (UniProt P35367)
Sequence (P35367 whole entry): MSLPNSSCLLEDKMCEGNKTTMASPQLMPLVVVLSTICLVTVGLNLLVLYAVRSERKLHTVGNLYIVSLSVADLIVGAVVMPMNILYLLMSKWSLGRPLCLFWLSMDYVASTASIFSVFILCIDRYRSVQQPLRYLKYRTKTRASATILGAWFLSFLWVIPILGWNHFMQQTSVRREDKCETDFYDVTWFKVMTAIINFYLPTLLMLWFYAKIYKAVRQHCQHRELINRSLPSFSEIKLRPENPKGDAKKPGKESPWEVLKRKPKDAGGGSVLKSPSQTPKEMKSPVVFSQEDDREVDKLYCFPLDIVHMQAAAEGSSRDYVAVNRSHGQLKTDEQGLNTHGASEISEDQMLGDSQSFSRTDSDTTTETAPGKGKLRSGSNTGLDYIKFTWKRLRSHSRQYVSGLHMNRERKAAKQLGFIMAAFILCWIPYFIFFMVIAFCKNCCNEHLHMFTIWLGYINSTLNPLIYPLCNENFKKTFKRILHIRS
Assay: Displacement of [3H]pyrilamine from human recombinant histamine H1 receptor at 10 uM after 60 mins by scintillation counting analysis relative to control
Details: not given
For `C/C=C/Cn1cc(-c2cc(OC)c(C(=O)N3CCOCC3)cc2OC)c2cc(C)[nH]c2c1=O`, the Activity was 1%.
In the case of `C/C=C/Cn1cc(-c2ccc(C(C)(C)O)cc2OC)c2cc[nH]c2c1=O`, the Activity is reported as 1%.

Test system: HT-29
Assay: Cytotoxicity against human HT-29 cells measured after 8 days
Format: functional, cell-based
Details: HT-29, 192 h
For `C/C=C/Cn1cc(-c2cc(OC)c(C(=O)N3CCOCC3)cc2OC)c2cc(C)[nH]c2c1=O`, the IC50 was 2000 nM.
In the case of `C/C=C/Cn1cc(-c2ccc(C(C)(C)O)cc2OC)c2cc[nH]c2c1=O`, the IC50 is reported as 20000 nM.

Test system: SW480
Assay: Cytotoxicity against human SW480 cells measured after 8 days
Format: functional, cell-based
Details: SW480, 192 h
`C/C=C/Cn1cc(-c2cc(OC)c(C(=O)N3CCOCC3)cc2OC)c2cc(C)[nH]c2c1=O` showed an IC50 of 2000 nM.
Work on `C/C=C/Cn1cc(-c2ccc(C(C)(C)O)cc2OC)c2cc[nH]c2c1=O` yielded an IC50 of 20000 nM.

Test system: SW1573
Assay: Cytotoxicity against human SW1573 cells measured after 8 days
Format: functional, cell-based
Details: SW1573, 192 h
For `C/C=C/Cn1cc(-c2cc(OC)c(C(=O)N3CCOCC3)cc2OC)c2cc(C)[nH]c2c1=O`, the IC50 was 2000 nM.
Work on `C/C=C/Cn1cc(-c2ccc(C(C)(C)O)cc2OC)c2cc[nH]c2c1=O` yielded an IC50 of 20000 nM.

Test system: MDA-MB-468
Assay: Cytotoxicity against human MDA-MB-468 cells measured after 8 days
Format: functional, cell-based
Details: MDA-MB-468, 192 h
Work on `C/C=C/Cn1cc(-c2cc(OC)c(C(=O)N3CCOCC3)cc2OC)c2cc(C)[nH]c2c1=O` yielded an IC50 of 2000 nM.
For `C/C=C/Cn1cc(-c2ccc(C(C)(C)O)cc2OC)c2cc[nH]c2c1=O`, the IC50 was 20000 nM.

Test system: SR
Assay: Cytotoxicity against human SR cells measured after 8 days
Format: functional, cell-based
Details: 192 h
`C/C=C/Cn1cc(-c2cc(OC)c(C(=O)N3CCOCC3)cc2OC)c2cc(C)[nH]c2c1=O` showed an IC50 of 2000 nM.
For `C/C=C/Cn1cc(-c2ccc(C(C)(C)O)cc2OC)c2cc[nH]c2c1=O`, the IC50 was 20000 nM.

Test system: not listed separately
Assay: Cytotoxicity against human NCI-H322T cells measured after 8 days
Format: functional, cell-based
Details: 192 h
In the case of `C/C=C/Cn1cc(-c2cc(OC)c(C(=O)N3CCOCC3)cc2OC)c2cc(C)[nH]c2c1=O`, the IC50 is reported as 2000 nM.
`C/C=C/Cn1cc(-c2ccc(C(C)(C)O)cc2OC)c2cc[nH]c2c1=O` showed an IC50 of 20000 nM.

Target: Ribosomal protein S6 kinase alpha-2 (Homo sapiens) (UniProt Q15349)
Assay: Inhibition of RSK3 (unknown origin) at 1 uM relative to control
Details: not given
With `C/C=C/Cn1cc(-c2cc(OC)c(C(=O)N3CCOCC3)cc2OC)c2cc(C)[nH]c2c1=O` the inhibition was 3.5%.
In the case of `C/C=C/Cn1cc(-c2ccc(C(C)(C)O)cc2OC)c2cc[nH]c2c1=O`, the inhibition is reported as 5.5%.

Test system: NCI-H226
Assay: Cytotoxicity against human NCI-H226 cells measured after 8 days
Format: functional, cell-based
Details: NCI-H226, 192 h
`C/C=C/Cn1cc(-c2cc(OC)c(C(=O)N3CCOCC3)cc2OC)c2cc(C)[nH]c2c1=O` showed an IC50 of 2000 nM.
In the case of `C/C=C/Cn1cc(-c2ccc(C(C)(C)O)cc2OC)c2cc[nH]c2c1=O`, the IC50 is reported as 20000 nM.

Test system: Caco-2
Assay: Cytotoxicity against human Caco-2 cells measured after 8 days
Format: functional, cell-based
Details: Caco-2, 192 h
In the case of `C/C=C/Cn1cc(-c2cc(OC)c(C(=O)N3CCOCC3)cc2OC)c2cc(C)[nH]c2c1=O`, the IC50 is reported as 2000 nM.
With `C/C=C/Cn1cc(-c2ccc(C(C)(C)O)cc2OC)c2cc[nH]c2c1=O` the IC50 was 20000 nM.

Target: Chromatin remodeling regulator CECR2 (Homo sapiens, UniProt Q9BXF3)
Sequence (Q9BXF3 whole entry): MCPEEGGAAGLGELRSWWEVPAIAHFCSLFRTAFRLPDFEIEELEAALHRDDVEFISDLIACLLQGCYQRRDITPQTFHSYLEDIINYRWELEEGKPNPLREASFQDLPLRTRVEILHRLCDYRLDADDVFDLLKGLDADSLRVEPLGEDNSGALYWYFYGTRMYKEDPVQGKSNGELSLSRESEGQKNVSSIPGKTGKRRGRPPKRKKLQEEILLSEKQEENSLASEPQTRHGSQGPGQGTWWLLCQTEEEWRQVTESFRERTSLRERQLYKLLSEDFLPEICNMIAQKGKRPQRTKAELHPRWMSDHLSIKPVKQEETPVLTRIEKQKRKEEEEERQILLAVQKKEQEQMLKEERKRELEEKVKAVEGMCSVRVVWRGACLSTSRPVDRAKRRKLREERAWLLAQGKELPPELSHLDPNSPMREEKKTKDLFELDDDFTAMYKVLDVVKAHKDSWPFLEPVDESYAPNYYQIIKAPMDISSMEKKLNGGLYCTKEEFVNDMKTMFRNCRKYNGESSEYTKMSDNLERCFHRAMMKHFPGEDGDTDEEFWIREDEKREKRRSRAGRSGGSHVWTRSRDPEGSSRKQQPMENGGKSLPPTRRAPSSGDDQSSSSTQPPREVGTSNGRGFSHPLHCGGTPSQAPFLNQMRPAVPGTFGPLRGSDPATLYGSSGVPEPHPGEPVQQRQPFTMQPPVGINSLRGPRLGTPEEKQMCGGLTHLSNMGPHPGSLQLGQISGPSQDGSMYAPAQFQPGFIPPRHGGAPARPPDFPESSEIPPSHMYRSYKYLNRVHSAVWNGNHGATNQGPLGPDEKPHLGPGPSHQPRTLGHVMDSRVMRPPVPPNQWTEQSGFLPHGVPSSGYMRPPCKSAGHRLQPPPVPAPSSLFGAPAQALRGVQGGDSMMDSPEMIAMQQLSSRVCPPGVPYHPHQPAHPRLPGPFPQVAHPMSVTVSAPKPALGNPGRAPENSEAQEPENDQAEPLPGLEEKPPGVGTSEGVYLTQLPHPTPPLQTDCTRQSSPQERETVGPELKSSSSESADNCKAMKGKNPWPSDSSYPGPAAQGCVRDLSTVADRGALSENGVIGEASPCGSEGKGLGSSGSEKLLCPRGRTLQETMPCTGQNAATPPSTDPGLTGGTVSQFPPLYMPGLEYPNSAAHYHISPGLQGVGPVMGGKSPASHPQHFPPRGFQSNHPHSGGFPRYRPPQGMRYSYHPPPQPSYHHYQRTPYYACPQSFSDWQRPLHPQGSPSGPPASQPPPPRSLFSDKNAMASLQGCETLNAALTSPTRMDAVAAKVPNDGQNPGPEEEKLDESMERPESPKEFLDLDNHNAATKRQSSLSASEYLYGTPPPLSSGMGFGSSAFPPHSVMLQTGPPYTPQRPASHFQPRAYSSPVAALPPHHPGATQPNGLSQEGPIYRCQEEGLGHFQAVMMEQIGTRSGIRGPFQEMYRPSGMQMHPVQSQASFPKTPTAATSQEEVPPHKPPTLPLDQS
Assay: Displacement of biotinylated small-molecule ligand from recombinant His-tagged CECR2 (unknown origin) measured after 10 mins by TR-FRET assay
Details: not given
`C/C=C/Cn1cc(-c2cc(OC)c(C(=O)N3CCOCC3)cc2OC)c2cc(C)[nH]c2c1=O` gave an IC50 of 2400 nM.
`C/C=C/Cn1cc(-c2ccc(C(C)(C)O)cc2OC)c2cc[nH]c2c1=O` gave an IC50 greater than 20000 nM.

Target: 5-hydroxytryptamine receptor 4 (Homo sapiens) (UniProt Q13639)
Sequence (Q13639 whole entry): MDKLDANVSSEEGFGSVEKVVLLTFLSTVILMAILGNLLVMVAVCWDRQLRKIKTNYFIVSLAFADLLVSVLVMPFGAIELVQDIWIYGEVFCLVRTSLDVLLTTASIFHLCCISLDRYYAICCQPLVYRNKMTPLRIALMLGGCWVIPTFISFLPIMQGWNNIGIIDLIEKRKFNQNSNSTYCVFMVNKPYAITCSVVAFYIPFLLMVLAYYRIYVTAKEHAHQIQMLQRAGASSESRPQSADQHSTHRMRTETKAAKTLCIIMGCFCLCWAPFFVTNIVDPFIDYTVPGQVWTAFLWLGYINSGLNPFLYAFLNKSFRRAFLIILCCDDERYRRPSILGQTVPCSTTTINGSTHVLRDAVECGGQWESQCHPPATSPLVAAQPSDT
Assay: Inhibition of human 5HT4e at 10 uM relative to control
Details: not given
For `C/C=C/Cn1cc(-c2cc(OC)c(C(=O)N3CCOCC3)cc2OC)c2cc(C)[nH]c2c1=O`, the inhibition was -8%.
`C/C=C/Cn1cc(-c2ccc(C(C)(C)O)cc2OC)c2cc[nH]c2c1=O` showed an inhibition of -1%.

Test system: not listed separately
Assay: Cytotoxicity against human NCI-H2810 cells measured after 8 days
Format: functional, cell-based
Details: NCI-H2810, 192 h
In the case of `C/C=C/Cn1cc(-c2cc(OC)c(C(=O)N3CCOCC3)cc2OC)c2cc(C)[nH]c2c1=O`, the IC50 is reported as 2000 nM.
`C/C=C/Cn1cc(-c2ccc(C(C)(C)O)cc2OC)c2cc[nH]c2c1=O` showed an IC50 of 20000 nM.

Organism: Rattus norvegicus
Assay: Displacement of [3H]batrachotoxinin from rat brain sodium voltage gated ion channel site 2 at 10 uM after 60 mins by scintillation counting analysis relative to control
Details: not given
`C/C=C/Cn1cc(-c2cc(OC)c(C(=O)N3CCOCC3)cc2OC)c2cc(C)[nH]c2c1=O` gave an Activity of 17%.
In the case of `C/C=C/Cn1cc(-c2ccc(C(C)(C)O)cc2OC)c2cc[nH]c2c1=O`, the Activity is reported as 12%.

Test system: NCI-H1993
Assay: Cytotoxicity against human NCI-H1993 cells measured after 8 days
Format: functional, cell-based
Details: NCI-H1993, 192 h
For `C/C=C/Cn1cc(-c2cc(OC)c(C(=O)N3CCOCC3)cc2OC)c2cc(C)[nH]c2c1=O`, the IC50 was 2000 nM.
Compound `C/C=C/Cn1cc(-c2ccc(C(C)(C)O)cc2OC)c2cc[nH]c2c1=O` has an IC50 of 20000 nM.

Target: RAC-alpha serine/threonine-protein kinase (Homo sapiens) (UniProt P31749)
Sequence (P31749 whole entry): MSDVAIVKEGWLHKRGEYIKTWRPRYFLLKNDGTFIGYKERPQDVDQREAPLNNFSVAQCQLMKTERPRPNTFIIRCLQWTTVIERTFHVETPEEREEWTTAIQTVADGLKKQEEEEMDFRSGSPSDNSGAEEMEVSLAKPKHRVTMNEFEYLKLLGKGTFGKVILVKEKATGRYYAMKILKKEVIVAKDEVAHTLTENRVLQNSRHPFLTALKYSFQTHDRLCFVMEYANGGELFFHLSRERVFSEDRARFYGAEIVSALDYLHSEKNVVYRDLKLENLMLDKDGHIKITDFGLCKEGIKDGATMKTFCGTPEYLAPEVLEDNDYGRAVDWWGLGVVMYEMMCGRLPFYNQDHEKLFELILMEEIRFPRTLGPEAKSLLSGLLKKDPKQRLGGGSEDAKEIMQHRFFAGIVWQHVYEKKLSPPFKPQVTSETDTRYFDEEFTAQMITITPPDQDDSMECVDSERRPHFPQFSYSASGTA
Assay: Inhibition of AKT1 (unknown origin) at 1 uM relative to control
Details: not given
Compound `C/C=C/Cn1cc(-c2cc(OC)c(C(=O)N3CCOCC3)cc2OC)c2cc(C)[nH]c2c1=O` has an inhibition of 1.5%.
`C/C=C/Cn1cc(-c2ccc(C(C)(C)O)cc2OC)c2cc[nH]c2c1=O` gave an inhibition of 2.5%.

Target: Tyrosine-protein kinase ABL1 (Homo sapiens) (UniProt P00519)
Assay: Inhibition of Abl (unknown origin) at 1 uM relative to control
Details: not given
For `C/C=C/Cn1cc(-c2cc(OC)c(C(=O)N3CCOCC3)cc2OC)c2cc(C)[nH]c2c1=O`, the inhibition was 11%.
Work on `C/C=C/Cn1cc(-c2ccc(C(C)(C)O)cc2OC)c2cc[nH]c2c1=O` yielded an inhibition of 10%.

Test system: not listed separately
Assay: Cytotoxicity against human NCE-G 111 cells measured after 8 days
Format: functional, cell-based
Details: NCE-G 111, 192 h
`C/C=C/Cn1cc(-c2cc(OC)c(C(=O)N3CCOCC3)cc2OC)c2cc(C)[nH]c2c1=O` gave an IC50 of 2000 nM.
`C/C=C/Cn1cc(-c2ccc(C(C)(C)O)cc2OC)c2cc[nH]c2c1=O` showed an IC50 of 20000 nM.

Test system: NCI-H292
Assay: Cytotoxicity against human NCI-H292 cells measured after 8 days
Format: functional, cell-based
Details: NCI-H292, 192 h
In the case of `C/C=C/Cn1cc(-c2cc(OC)c(C(=O)N3CCOCC3)cc2OC)c2cc(C)[nH]c2c1=O`, the IC50 is reported as 2000 nM.
In the case of `C/C=C/Cn1cc(-c2ccc(C(C)(C)O)cc2OC)c2cc[nH]c2c1=O`, the IC50 is reported as 20000 nM.

Test system: DLD-1
Assay: Cytotoxicity against human DLD-1 cells measured after 8 days
Format: functional, cell-based
Details: DLD-1, 192 h
In the case of `C/C=C/Cn1cc(-c2cc(OC)c(C(=O)N3CCOCC3)cc2OC)c2cc(C)[nH]c2c1=O`, the IC50 is reported as 2000 nM.
Compound `C/C=C/Cn1cc(-c2ccc(C(C)(C)O)cc2OC)c2cc[nH]c2c1=O` has an IC50 of 20000 nM.
